Results from patent US20130109682A1, “CYCLIC ETHER COMPOUNDS USEFUL AS KINASE INHIBITORS” (NOVARTIS AG, priority 2010, published 2013).

How the values were obtained:
[1] = molecular target: PIM1 (Homo sapiens, UniProt P11309); assay: KinaseGlo Pim1 ATP depletion assay; format: biochemical
In short: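 2.5 nM PIM1 preincubated 15 min with compound and 40 μM BAD peptide in 50 mM HEPES pH 7.5, 5 mM MgCl2, 1 mM DTT, 0.05% BSA, 2.5% DMSO. The reaction was started with 20 μM ATP (final) and run to about 50% ATP depletion. Remaining ATP read by KinaseGlo Plus luminescence to give IC50.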

[2] = molecular target: PIM2 (Homo sapiens, UniProt Q9P1W9); assay: KinaseGlo Pim2 ATP depletion assay; format: biochemical
In short: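 Luminescent ATP-depletion read-out of PIM2 phosphorylating BAD peptide (RSRHSSYPAGT-OH). Final conditions: 5 nM PIM2, 4 μM ATP, 10 μM peptide, 2.5% DMSO in 50 mM HEPES pH 7.5, 5 mM MgCl2, 1 mM DTT, 0.05% BSA. Enzyme–peptide preincubated 15 min with compound; reaction run to ~50% ATP depletion.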

[3] = molecular target: PIM3 (Homo sapiens, UniProt Q86V86); assay: KinaseGlo Pim3 ATP depletion assay; format: biochemical
In short: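 Kinase was preincubated 15 min with BAD peptide in HEPES pH 7.5/MgCl2/DTT/BSA before ATP was added. Final concentrations were 40 μM ATP, 100 μM BAD peptide and 2.5% DMSO, with 5 nM enzyme. The reaction ran to ~50% ATP depletion and remaining ATP was read by KinaseGlo Plus luminescence.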

[4] = molecular target: GSK3β (Homo sapiens, UniProt P49841); assay: GSK3β ATP depletion assay; format: biochemical; settings: read-out: GSK3b IC50
In short: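 Human GSK3β (5 nM) preincubated 15 min with 10 μM biotinylated phospho-CREB peptide in pH 7.5 Tris buffer (15 mM MgCl2, 1 mM DTT, 0.1% BSA, 2.5% DMSO). Reaction started with 2 μM ATP and run to about 50% ATP depletion. Remaining ATP measured by KinaseGlo luminescence.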

[5] = tested on: KMS11 (human myeloma cell line); assay: Cell proliferation assay (CellTiter-Glo), KMS11; format: cell-based; settings: KMS11-Luc cells
In short: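 KMS11 cells in IMDM with 10% FBS and sodium pyruvate, seeded at 2000 cells/well on assay day. Compound added at 2× to equal volume of cells, incubated 3 days at 37° C. Viability read by CellTiter-Glo luminescence; EC50 derived.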

Chain of PIM2 (Q9P1W9 whole entry): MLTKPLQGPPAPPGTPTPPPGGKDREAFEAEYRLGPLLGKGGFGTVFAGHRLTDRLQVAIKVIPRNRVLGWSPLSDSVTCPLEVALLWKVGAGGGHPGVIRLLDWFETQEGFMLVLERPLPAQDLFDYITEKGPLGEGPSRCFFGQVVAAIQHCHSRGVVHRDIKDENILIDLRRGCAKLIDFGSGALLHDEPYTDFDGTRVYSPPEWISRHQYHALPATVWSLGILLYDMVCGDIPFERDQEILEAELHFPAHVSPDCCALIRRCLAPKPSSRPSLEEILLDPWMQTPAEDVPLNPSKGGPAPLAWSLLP
Chain of PIM1 (P11309 whole entry): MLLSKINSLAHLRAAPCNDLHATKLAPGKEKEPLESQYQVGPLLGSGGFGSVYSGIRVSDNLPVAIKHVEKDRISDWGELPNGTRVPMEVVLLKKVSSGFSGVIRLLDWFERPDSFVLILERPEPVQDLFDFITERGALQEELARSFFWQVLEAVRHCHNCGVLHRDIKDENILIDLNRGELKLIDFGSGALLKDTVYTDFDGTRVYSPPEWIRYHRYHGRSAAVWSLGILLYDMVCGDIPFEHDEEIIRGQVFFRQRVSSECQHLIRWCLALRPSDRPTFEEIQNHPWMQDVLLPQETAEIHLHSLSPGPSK
Chain of GSK3β (P49841 whole entry, species assumed): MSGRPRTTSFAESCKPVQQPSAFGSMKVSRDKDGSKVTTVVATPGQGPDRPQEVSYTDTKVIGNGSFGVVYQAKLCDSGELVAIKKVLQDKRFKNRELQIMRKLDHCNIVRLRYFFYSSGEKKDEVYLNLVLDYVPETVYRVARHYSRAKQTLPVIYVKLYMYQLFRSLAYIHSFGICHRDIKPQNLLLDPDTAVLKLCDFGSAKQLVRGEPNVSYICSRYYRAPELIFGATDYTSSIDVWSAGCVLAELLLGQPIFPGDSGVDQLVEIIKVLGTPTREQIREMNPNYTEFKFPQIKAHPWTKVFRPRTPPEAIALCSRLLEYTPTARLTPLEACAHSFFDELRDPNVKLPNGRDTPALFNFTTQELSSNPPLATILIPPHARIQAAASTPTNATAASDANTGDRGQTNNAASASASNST

Row | Compound | IC50 [1] [nM] | IC50 [2] [nM] | IC50 [3] [nM] | IC50 [4] [nM] | EC50 ([5]; Homo sapiens, KMS-11) [nM] | EC50 [5] [nM]
1 | O=C(Nc1cnccc1[C@H]1C[C@@H](O)CC2(CC2)O1)c1ccc(F)c(-c2c(F)cccc2F)n1 [Example 59, 6-(2,6-difluorophenyl)-5-fluoro-N-(4-((5R,7R)-7-hydroxy-4-oxaspiro[2.5]octan-5-yl)pyridin-3-yl)picolinamide] | 6 | 162 | 14 | 757 | > 10000 | –
2 | CC[C@]1(O)[C@H](O)C[C@H](c2ccncc2NC(=O)c2nc(-c3ncccc3F)ccc2N)O[C@@H]1C [Example 155, 5-amino-N-(4-((2R,4R,5S,6R)-5-ethyl-4,5-dihydroxy-6-methyltetrahydro-2H-pyran-2-yl)pyridin-3-yl)-3′-fluoro-2,2′-bipyridine-6-carboxamide] | 4 | 46.3 | 5.3 | 374 | 4920 | –
3 | Nc1cnc(-c2c(F)cccc2F)nc1C(=O)Nc1cnccc1[C@H]1C[C@@H](O)[C@@]2(O)CCC[C@H]2O1 [Example 180, 5-amino-2-(2,6-difluorophenyl)-N-(4-((2R,4R,4aS,7aR)-4,4a-dihydroxyoctahydrocyclopenta[b]pyran-2-yl)pyridin-3-yl)pyrimidine-4-carboxamide] | 8.4 | 10.6 | 7.2 | 101 | > 10000 | –
4 | CC[C@H]1O[C@@H](c2ccncc2NC(=O)c2ccc(F)c(-c3c(F)cccc3F)n2)C[C@@H](O)[C@H]1C#N [Example 200, N-(4-((2R,4R,5R,6R)-5-cyano-6-ethyl-4-hydroxytetrahydro-2H-pyran-2-yl)pyridin-3-yl)-6-(2,6-difluorophenyl)-5-fluoropicolinamide] | 7.8 | 46.7 | 33.9 | 1200 | > 10000 | –
5 | O=C1CC[C@H]2O[C@@H](c3ccncc3NC(=O)c3ccc(F)c(-c4c(F)cccc4F)n3)C[C@@H](O)[C@H]2N1 [Example 198, 6-(2,6-difluorophenyl)-5-fluoro-N-(4-((2R,4R,4aR,8aR)-4-hydroxy-6-oxooctahydro-2H-pyrano[3,2-b]pyridin-2-yl)pyridin-3-yl)picolinamide] | 2.6 | 53.6 | 19.2 | 24 | > 10000 | –
6 | C=C[C@H]1OC(c2ccncc2NC(=O)c2nc(-c3c(F)cccc3F)c(F)cc2N)=C[C@@H](O)[C@@H]1O [Example 25, 3-amino-6-(2,6-difluorophenyl)-N-(4-((2R,3S,4R)-3,4-dihydroxy-2-vinyl-3,4-dihydro-2H-pyran-6-yl)pyridin-3-yl)-5-fluoropicolinamide] | 1 | 2 | 2 | 660 | 1350 | –
7 | O=C(Nc1cnccc1[C@H]1OC[C@H](CO)O1)c1ccc(F)c(-c2c(F)cccc2F)n1 [Example 101, 6-(2,6-difluorophenyl)-5-fluoro-N-(4-((2S,4S)-4-(hydroxymethyl)-1,3-dioxolan-2-yl)pyridin-3-yl)picolinamide] | 12 | 1340 | 68 | 2600 | > 10000 | –
8 | O=C(Nc1cnccc1[C@@H]1C[C@H](O)[C@]2(O)CCC[C@@H]2O1)c1cccn(-c2ccccc2)c1=O [Example 192, N-(4-((2S,4S,4aR,7aS)-4,4a-dihydroxyoctahydrocyclopenta[b]pyran-2-yl)pyridin-3-yl)-2-oxo-1-phenyl-1,2-dihydropyridine-3-carboxamide] | > 25000 | > 25000 | > 25000 | > 25000 | > 10000 | –
9 | CC(C)NC(=O)c1ccc(F)c(-c2cccc(C(=O)Nc3cnccc3[C@H]3C[C@@H](O)[C@](C)(O)[C@@H](C)O3)n2)c1 [Example 106, N-(4-((2R,4R,5S,6R)-4,5-dihydroxy-5,6-dimethyltetrahydro-2H-pyran-2-yl)pyridin-3-yl)-6-(2-fluoro-5-(isopropylcarbamoyl)phenyl)picolinamide] | 7 | 78 | 15 | 3590 | 9200 | –
10 | CC[C@H]1O[C@@H](c2ccncc2NC(=O)c2nc(-c3nccs3)ccc2N)C[C@@H](O)[C@@H]1O [Example 145, 3-amino-N-(4-((2R,4R,5S,6R)-6-ethyl-4,5-dihydroxytetrahydro-2H-pyran-2-yl)pyridin-3-yl)-6-(thiazol-2-yl)picolinamide] | 18.4 | 57.5 | 19.4 | 2250 | – | > 10000
11 | CC[C@H]1O[C@@H](c2ccncc2NC(=O)c2nc(-c3nccs3)ccc2N)C[C@@H](O)[C@@H]1O [Example 140, 3-amino-N-(4-((2R,4R,5S,6R)-6-ethyl-4,5-dihydroxytetrahydro-2H-pyran-2-yl)pyridin-3-yl)-6-(thiazol-2-yl)picolinamide] | 18 | 54 | 19 | 2250 | > 10000 | –
12 | O=C(Nc1cnccc1[C@H]1C[C@@H](O)[C@@]2(O)CCC[C@H]2O1)c1cccn(-c2ccccc2)c1=O [Example 194, N-(4-((2R,4R,4aS,7aR)-4,4a-dihydroxyoctahydrocyclopenta[b]pyran-2-yl)pyridin-3-yl)-2-oxo-1-phenyl-1,2-dihydropyridine-3-carboxamide] | 2210 | > 25000 | 2850 | 13300 | > 10000 | –
13 | CC[C@H]1O[C@@H](c2ccncc2NC(=O)c2ccnc(-c3c(F)cccc3F)n2)C[C@@H](O)[C@@H]1O [Example 34, 2-(2,6-difluorophenyl)-N-(4-((2R,4R,5S,6R)-6-ethyl-4,5-dihydroxytetrahydro-2H-pyran-2-yl)pyridin-3-yl)pyrimidine-4-carboxamide] | 22 | 170 | 38 | 61 | 5000 | –
14 | N#Cc1ccc(F)c(-c2nc(C(=O)Nc3cnccc3[C@H]3C[C@@H](O)[C@H](O)[C@@H](CCl)O3)ccc2F)c1F [Example 1, N-(4-((2R,4R,5S,6S)-6-(chloromethyl)-4,5-dihydroxytetrahydro-2H-pyran-2-yl)pyridin-3-yl)-6-(3-cyano-2,6-difluorophenyl)-5-fluoropicolinamide] | 17 | 5 | 3.2 | 33 | 9350 | –
15 | O=C(Nc1cnccc1[C@H]1C[C@@H](O)[C@H](O)[C@@H](CCl)O1)c1ccnc(-c2c(F)cccc2F)n1 [Example 37, N-(4-((2R,4R,5S,6S)-6-(chloromethyl)-4,5-dihydroxytetrahydro-2H-pyran-2-yl)pyridin-3-yl)-2-(2,6-difluorophenyl)pyrimidine-4-carboxamide] | 12 | 65 | 17 | 14 | > 10000 | –
16 | CC[C@H]1O[C@@H](c2ccncc2NC(=O)c2ccc(F)c(-c3c(F)cccc3F)n2)C[C@@H](O)[C@@H]1O [Example 75, 6-(2,6-difluorophenyl)-N-(4-((2R,4R,5S,6R)-6-ethyl-4,5-dihydroxytetrahydro-2H-pyran-2-yl)pyridin-3-yl)-5-fluoropicolinamide] | 1 | 4 | 2 | 228 | 2200 | –
17 | C[C@H]1[C@H](O)C[C@H](c2ccncc2NC(=O)c2csc(-c3c(F)cccc3F)n2)O[C@@H]1C (stereo in doubt) [Example 95, 2-(2,6-difluorophenyl)-N-(4-((2R,4R,5S,6R)-4-hydroxy-5,6-dimethyltetrahydro-2H-pyran-2-yl)pyridin-3-yl)thiazole-4-carboxamide] | 8 | 2170 | 80 | 32 | > 10000 | –
18 | CC[C@H]1O[C@@H](c2ccncc2NC(=O)c2csc(-c3c(F)cccc3F)n2)C[C@@H](O)[C@@H]1O [Example 41, 2-(2,6-difluorophenyl)-N-(4-((2R,4R,5S,6R)-6-ethyl-4,5-dihydroxytetrahydro-2H-pyran-2-yl)pyridin-3-yl)thiazole-4-carboxamide] | 1 | 65 | 7 | 17 | 9900 | –
19 | N#CC[C@H]1O[C@@H](c2ccncc2NC(=O)c2ccc(C#N)c(-c3c(F)cccc3F)n2)C[C@@H](O)[C@@H]1O [Example 47, 5-cyano-N-(4-((2R,4R,5S,6R)-6-(cyanomethyl)-4,5-dihydroxytetrahydro-2H-pyran-2-yl)pyridin-3-yl)-6-(2,6-difluorophenyl)picolinamide] | 58 | 356 | 113 | 9180 | > 10000 | –
